Tests used:
[1] = target: T1, Phosphatidylinositol 3-kinase C2 domain-containing subunit gamma (Homo sapiens) (UniProt O75747); experiment: Selectivity interaction (KinomeScan (DiscoverX)) EUB0001619a PIK3C2G; conditions: at 1 µM
T1 sequence (whole entry): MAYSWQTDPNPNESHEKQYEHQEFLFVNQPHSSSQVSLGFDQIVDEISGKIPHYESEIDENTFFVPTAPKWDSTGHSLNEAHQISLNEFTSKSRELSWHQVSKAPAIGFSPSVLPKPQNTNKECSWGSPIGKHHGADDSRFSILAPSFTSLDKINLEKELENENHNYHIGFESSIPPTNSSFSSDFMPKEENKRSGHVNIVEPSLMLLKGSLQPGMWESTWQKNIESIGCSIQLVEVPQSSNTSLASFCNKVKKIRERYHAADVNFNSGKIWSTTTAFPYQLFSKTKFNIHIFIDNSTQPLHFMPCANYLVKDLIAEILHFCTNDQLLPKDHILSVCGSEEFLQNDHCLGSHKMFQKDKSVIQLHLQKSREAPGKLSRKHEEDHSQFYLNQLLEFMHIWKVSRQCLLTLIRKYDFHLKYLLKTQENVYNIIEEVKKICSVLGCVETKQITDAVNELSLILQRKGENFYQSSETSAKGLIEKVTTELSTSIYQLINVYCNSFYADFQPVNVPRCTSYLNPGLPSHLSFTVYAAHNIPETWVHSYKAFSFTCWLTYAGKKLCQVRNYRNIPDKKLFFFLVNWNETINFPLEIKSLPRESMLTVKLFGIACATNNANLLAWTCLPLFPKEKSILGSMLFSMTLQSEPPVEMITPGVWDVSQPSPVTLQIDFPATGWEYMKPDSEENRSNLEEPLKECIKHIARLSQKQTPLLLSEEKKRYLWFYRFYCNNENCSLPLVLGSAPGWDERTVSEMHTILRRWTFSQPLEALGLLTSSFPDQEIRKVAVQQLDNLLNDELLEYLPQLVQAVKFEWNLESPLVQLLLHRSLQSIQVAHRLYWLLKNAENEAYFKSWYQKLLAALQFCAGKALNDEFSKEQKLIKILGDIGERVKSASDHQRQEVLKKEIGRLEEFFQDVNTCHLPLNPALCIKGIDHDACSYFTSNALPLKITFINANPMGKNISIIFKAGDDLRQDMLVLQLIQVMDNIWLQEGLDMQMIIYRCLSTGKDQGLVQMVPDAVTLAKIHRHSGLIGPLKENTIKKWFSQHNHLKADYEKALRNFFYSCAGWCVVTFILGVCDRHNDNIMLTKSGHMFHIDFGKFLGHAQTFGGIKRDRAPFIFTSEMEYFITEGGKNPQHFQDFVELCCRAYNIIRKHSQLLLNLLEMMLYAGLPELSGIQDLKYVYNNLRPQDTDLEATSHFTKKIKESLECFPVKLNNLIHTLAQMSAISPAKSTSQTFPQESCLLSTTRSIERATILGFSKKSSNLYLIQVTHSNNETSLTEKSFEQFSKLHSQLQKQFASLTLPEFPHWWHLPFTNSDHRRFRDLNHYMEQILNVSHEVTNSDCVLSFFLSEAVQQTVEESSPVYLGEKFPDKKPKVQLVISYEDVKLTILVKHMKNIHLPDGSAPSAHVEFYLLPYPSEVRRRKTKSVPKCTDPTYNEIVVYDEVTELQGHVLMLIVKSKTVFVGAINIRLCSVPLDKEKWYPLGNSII

[2] = target: T2, Serine/threonine-protein kinase Sgk3 (Homo sapiens) (UniProt Q96BR1); experiment: Selectivity interaction (ActivX KiNativ screen (kinase selectivity in THP-1 cell lysates)) EUB0000639a SGK3; assay type: subcellular; conditions: lysate, at 0.01 µM
T2 sequence (whole entry): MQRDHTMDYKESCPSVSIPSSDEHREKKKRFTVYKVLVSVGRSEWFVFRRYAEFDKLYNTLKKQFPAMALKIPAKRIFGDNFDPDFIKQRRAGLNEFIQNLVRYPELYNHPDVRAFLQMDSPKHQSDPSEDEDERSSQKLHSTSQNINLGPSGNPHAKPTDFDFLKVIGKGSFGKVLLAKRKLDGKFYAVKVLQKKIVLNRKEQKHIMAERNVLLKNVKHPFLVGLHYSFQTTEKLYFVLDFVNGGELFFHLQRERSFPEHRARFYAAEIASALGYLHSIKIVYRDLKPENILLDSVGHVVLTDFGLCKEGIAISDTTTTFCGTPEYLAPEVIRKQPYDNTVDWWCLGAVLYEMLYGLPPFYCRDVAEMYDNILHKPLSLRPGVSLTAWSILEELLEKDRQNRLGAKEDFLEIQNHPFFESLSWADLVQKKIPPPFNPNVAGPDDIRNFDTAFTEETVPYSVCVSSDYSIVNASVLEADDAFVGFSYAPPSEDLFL

[3] = target: Cyclin-dependent kinase 14 (Homo sapiens) (UniProt O94921); experiment: Selectivity interaction (ActivX KiNativ screen (kinase selectivity in THP-1 cell lysates)) EUB0000639a CDK14; assay type: subcellular; conditions: lysate, at 5 µM
[4] = target: T3, Serine/threonine-protein kinase Nek2 (Homo sapiens) (UniProt P51955); experiment: Selectivity interaction (Kinase screening (Nanosyn)) EUB0000604a NEK2
T3 sequence (whole entry): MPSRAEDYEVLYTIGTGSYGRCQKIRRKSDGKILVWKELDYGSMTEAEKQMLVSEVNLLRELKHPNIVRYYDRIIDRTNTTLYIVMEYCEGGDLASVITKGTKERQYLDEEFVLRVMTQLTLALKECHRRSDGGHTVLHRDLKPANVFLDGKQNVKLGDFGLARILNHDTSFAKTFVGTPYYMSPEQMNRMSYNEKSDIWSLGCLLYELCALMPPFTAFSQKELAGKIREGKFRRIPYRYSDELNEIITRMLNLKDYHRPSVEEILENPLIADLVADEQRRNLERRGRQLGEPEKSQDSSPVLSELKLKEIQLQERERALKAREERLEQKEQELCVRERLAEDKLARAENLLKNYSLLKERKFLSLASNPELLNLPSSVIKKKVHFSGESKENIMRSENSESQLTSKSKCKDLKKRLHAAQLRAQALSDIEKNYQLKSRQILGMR

Chain of Cyclin-dependent kinase 14 (Homo sapiens) (O94921 whole entry): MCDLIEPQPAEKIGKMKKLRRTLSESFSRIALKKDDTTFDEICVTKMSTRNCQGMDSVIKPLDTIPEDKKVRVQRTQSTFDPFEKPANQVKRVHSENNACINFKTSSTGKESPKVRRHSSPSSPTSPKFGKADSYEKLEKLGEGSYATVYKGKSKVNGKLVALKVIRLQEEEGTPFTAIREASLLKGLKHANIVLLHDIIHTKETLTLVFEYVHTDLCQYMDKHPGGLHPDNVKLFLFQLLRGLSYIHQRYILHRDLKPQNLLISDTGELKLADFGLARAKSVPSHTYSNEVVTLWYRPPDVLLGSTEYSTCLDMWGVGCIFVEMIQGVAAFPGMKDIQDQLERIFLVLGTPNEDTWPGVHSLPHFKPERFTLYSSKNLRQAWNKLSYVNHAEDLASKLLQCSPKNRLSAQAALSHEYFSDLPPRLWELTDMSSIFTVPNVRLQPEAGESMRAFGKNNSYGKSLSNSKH

**Q.** With `N#Cc1cccc(-c2c[nH]c3ncnc(N4CCOCC4)c23)c1` as the compound, how does the % of control [1] read?
**A.** The % of control was 100%.

**Q.** How did the % of inhibition [2] turn out when `CC[C@@H]1[C@H](F)C(=O)N[C@@H]1COc1nccc2cc(C(N)=O)c(OC)cc12` [ZIMLOVISERTIB] was run?
**A.** The % of inhibition was -1%.

**Q.** And the % of inhibition [3]?
**A.** Its % of inhibition is 12.8%.

**Q.** With `Cc1cnc(Nc2ccc(F)cc2Cl)nc1-c1c[nH]c(C(=O)N[C@H](CO)c2cccc(Cl)c2)c1` as the compound, how does the % of inhibition [4] read?
**A.** Its % of inhibition is 3%.

Source: ChEMBL document CHEMBL5465560, “Selectivity Literature for EUbOPEN Chemogenomic Library” (2024)
